{"source": "patent US10105357B2", "about": "“Indication of antibiotic drugs for preparation of cancer inhibition pharmaceutical composition” (LAUNX BIOMEDICAL CO., LTD., priority 2014, dated 2018)", "key": {"[1]": {"system": "SAS (Tongue squamous cell carcinoma)", "assay": "Cell viability analysis, tongue cancer SAS", "type": "cell-based, human"}, "[2]": {"system": "AsPC-1", "assay": "Cell viability analysis, pancreatic cancer AsPC-1", "type": "cell-based, human"}, "[3]": {"system": "U-2OS", "assay": "Cell viability analysis, osteosarcoma U-2OS", "type": "cell-based, human"}, "[4]": {"system": "MCF7 (Mammary Gland, Adenocarcinoma)", "assay": "Cell viability analysis, breast cancer MCF7", "type": "cell-based, human"}, "[5]": {"system": "A549 (Lung Adenocarcinoma)", "assay": "Cell viability analysis, lung cancer A549", "type": "cell-based, human"}, "[6]": {"system": "PC3 (p53−) (Prostate Adenocarcinoma)", "assay": "Cell viability analysis, prostate cancer PC3", "type": "cell-based, human"}, "[7]": {"system": "HeLa (Cervix Adenocarcinoma)", "assay": "Cell viability analysis, cervical cancer HeLa", "type": "cell-based, human"}, "[8]": {"system": "HI650 (Lung Adenocarcinoma)", "assay": "Cell viability analysis, lung cancer HI650", "type": "cell-based, human"}, "[9]": {"system": "A375 (Amelanotic Melanoma)", "assay": "Cell viability analysis, skin cancer A375", "type": "cell-based, human"}, "[10]": {"system": "AGS (Gastric Adenocarcinoma)", "assay": "Cell viability analysis, gastric cancer AGS", "type": "cell-based, human"}, "[11]": {"system": "BxPC-3", "assay": "Cell viability analysis, pancreatic cancer BxPC-3", "type": "cell-based, human", "details": "BxPC-3; repeated experiment"}, "[12]": {"system": "HepG2 (Hepatocellular Carcinoma)", "assay": "Cell viability analysis, hepatic cancer HepG2", "type": "cell-based, human"}, "[13]": {"system": "HCT116 (p53+) (Colorectal Carcinoma)"}, "[14]": {"system": "LoVo (Colorectal Adenocarcinoma)", "assay": "Cell viability analysis, colon cancer LoVo", "type": "cell-based, human"}, "[15]": {"system": "BCC (basal cell carcinoma)", "assay": "Cell viability analysis, skin cancer BCC", "type": "cell-based, human", "details": "BCC; repeated experiment"}, "[16]": {"system": "TSGH-8301 (Urinary Bladder Carcinoma)", "assay": "Cell viability analysis, bladder cancer TSGH-8301", "type": "cell-based, human"}, "[17]": {"system": "MKN-45 (Gastric Adenocarcinoma)", "assay": "Cell viability analysis, gastric cancer MKN-45", "type": "cell-based, human"}, "[18]": {"system": "cancer cell lines", "assay": "Cell viability analysis (WST-1) on cancer cell lines", "type": "cell-based, human", "details": "drug 10 μM, 72 hours, WST-1; Table 3"}, "[19]": {"system": "HL-60 (Acute Promyelocytic Leukemia)", "assay": "Cell viability analysis, leukemia HL-60", "type": "cell-based, human"}, "[20]": {"system": "Hep3B (hepatocellular carcinoma)", "assay": "Cell viability analysis, hepatic cancer Hep3B", "type": "cell-based, human"}, "[21]": {"system": "786-O (Renal adenocarcinoma)", "assay": "Cell viability analysis, renal cancer 786-O", "type": "cell-based, human"}, "[22]": {"system": "MDA-MB-231 (Mammary Gland, Adenocarcinoma)", "assay": "Cell viability analysis, breast cancer MDA-MB-231", "type": "cell-based, human"}, "[23]": {"system": "NIH: OVCAR-3", "assay": "Cell viability analysis, ovarian cancer NIH: OVCAR-3", "type": "cell-based, human"}, "[24]": {"system": "C-33A (Cervical carcinoma)", "assay": "Cell viability analysis, cervical cancer C-33A", "type": "cell-based, human"}, "[25]": {"details": "drug 10 μM, 72 hours, WST-1, OD450 nm"}}, "note": "Read-outs that look alike come from different tables or passages of the source."}
{"smiles": "CC1(C)S[C@@H]2[C@H](NC(=O)[C@H](N)c3ccc(O)cc3)C(=O)N2[C@H]1C(=O)[O-].[Na+]", "note": "[Amoxicillin sodium (Amox), Amoxicillin sodium]", "values": [{"measurement": "The results of antibiotic drug inhibiting cancer cell lines (cell viability analysis), SAS", "setting": "[1]; SAS, repeated experiment", "value": 66.94}, {"measurement": "The results of antibiotic drug inhibiting cancer cell lines (cell viability analysis), AsPC-1", "setting": "[2]; AsPC-1, repeated experiment", "value": 88.13}, {"measurement": "The results of antibiotic drug inhibiting cancer cell lines (cell viability analysis), U2OS", "setting": "[3]; U2OS, repeated experiment", "value": 65.21}, {"measurement": "cell viability (survival rate), MCF7", "setting": "[4]; [25]", "value": 60.4}, {"measurement": "cell viability (survival rate), A549", "setting": "[5]; [25]", "value": 60.6}, {"measurement": "The results of antibiotic drug inhibiting cancer cell lines (cell viability analysis), PC-3", "setting": "[6]; PC-3, repeated experiment", "value": 127.2}, {"measurement": "cell viability (survival rate), PC3", "setting": "[6]; [25]", "value": 74.8}, {"measurement": "The results of antibiotic drug inhibiting cancer cell lines (cell viability analysis), HeLa", "setting": "[7]; HeLa, repeated experiment", "value": 112.6}, {"measurement": "cell viability (survival rate), HeLa", "setting": "[7]; [25]", "value": 81.0}, {"measurement": "The results of antibiotic drug inhibiting cancer cell lines (cell viability analysis), H1650", "setting": "[8]; H1650, repeated experiment", "value": 87.81}, {"measurement": "cell viability (survival rate), H1650", "setting": "[8]; [25]", "value": 43.3}, {"measurement": "The results of antibiotic drug inhibiting cancer cell lines (cell viability analysis), A375", "setting": "[9]; A375, repeated experiment", "value": 115.9}, {"measurement": "cell viability (survival rate), A375", "setting": "[9]; [25]", "value": 78.5}, {"measurement": "The results of antibiotic drug inhibiting cancer cell lines (cell viability analysis), AGS", "setting": "[10]; AGS, repeated experiment", "value": 128.2}, {"measurement": "cell viability (survival rate), AGS", "setting": "[10]; [25]", "value": 51.2}, {"measurement": "The results of antibiotic drug inhibiting cancer cell lines (cell viability analysis), BxPC-3", "setting": "[11]", "value": 71.08}, {"measurement": "The results of antibiotic drug inhibiting cancer cell lines (cell viability analysis), HepG2", "setting": "[12]; HepG2, repeated experiment", "value": 124.5}, {"measurement": "cell viability (survival rate), HepG2", "setting": "[12]; [25]", "value": 80.8}, {"measurement": "viability", "setting": "[13]", "value": 112, "unit": "%"}, {"measurement": "cell viability (survival rate), LoVo", "setting": "[14]; [25]", "value": 69.1}, {"measurement": "The results of antibiotic drug inhibiting cancer cell lines (cell viability analysis), BCC", "setting": "[15]", "value": 115.1}, {"measurement": "The results of antibiotic drug inhibiting cancer cell lines (cell viability analysis), TSGH-8301", "setting": "[16]; TSGH-8301, repeated experiment", "value": 129.6}, {"measurement": "cell viability (survival rate), TSGH", "setting": "[16]; [25]", "value": 45.4}, {"measurement": "The results of antibiotic drug inhibiting cancer cell lines (cell viability analysis), MKN-45", "setting": "[17]; MKN-45, repeated experiment", "value": 110.7}, {"measurement": "cell viability (survival rate), MKN-45", "setting": "[17]; [25]", "value": 63.2}, {"measurement": "inhibition effect on different cancer cell lines", "setting": "[18]", "value": "significant inhibition effect"}]}
{"smiles": "O=C([O-])C(O)[C@H](O)[C@@H](O)[C@H](O)[C@H](O)CO.O=C([O-])C(O)[C@H](O)[C@@H](O)[C@H](O)[C@H](O)CO.[Ca+2]", "note": "(some centres unmarked) [Calcium Gluceptate]", "values": [{"measurement": "cell viability (survival rate), MCF7", "setting": "[4]; [25]", "value": 34.24}, {"measurement": "cell viability (survival rate), A549", "setting": "[5]; [25]", "value": 24.91}, {"measurement": "cell viability (survival rate), PC3", "setting": "[6]; [25]", "value": 37.91}, {"measurement": "cell viability (survival rate), HeLa", "setting": "[7]; [25]", "value": 43.93}, {"measurement": "cell viability (survival rate), HL-60", "setting": "[19]; [25]", "value": 113.4525}, {"measurement": "cell viability (survival rate), H1650", "setting": "[8]; [25]", "value": 54.25}, {"measurement": "cell viability (survival rate), A375", "setting": "[9]; [25]", "value": 36.97}, {"measurement": "cell viability (survival rate), AGS", "setting": "[10]; [25]", "value": 79.67}, {"measurement": "cell viability (survival rate), HepG2", "setting": "[12]; [25]", "value": 76.88}, {"measurement": "cell viability (survival rate), HCT116", "setting": "[13]; drug 10 μM, 72 hours, WST-1, OD450 nm, head HCT116 / HCT116(WT)", "value": 74.09}, {"measurement": "cell viability (survival rate), LoVo", "setting": "[14]; [25]", "value": 55.29}, {"measurement": "cell viability (survival rate), TSGH", "setting": "[16]; [25]", "value": 33.81}, {"measurement": "cell viability (survival rate), MKN-45", "setting": "[17]; [25]", "value": 74.23}]}
{"smiles": "CCn1cc(C(=O)O)c(=O)c2cc(F)c(N3CCNC(C)C3)c(F)c21.Cl", "note": "(centres unmarked) [Lomefloxacin HCl (Maxaquin)]", "values": [{"measurement": "cell viability (survival rate), MCF7", "setting": "[4]", "value": 83.5}, {"measurement": "cell viability (survival rate), A549", "setting": "[5]", "value": 70.7}, {"measurement": "cell viability (survival rate), PC3", "setting": "[6]", "value": 63.3}, {"measurement": "cell viability (survival rate), HeLa", "setting": "[7]", "value": 135.0}, {"measurement": "cell viability (survival rate), HL-60", "setting": "[19]", "value": 96.5}, {"measurement": "cell viability (survival rate), H1650", "setting": "[8]", "value": 56.6}, {"measurement": "cell viability (survival rate), A375", "setting": "[9]", "value": 87.7}, {"measurement": "cell viability (survival rate), AGS", "setting": "[10]", "value": 77.5}, {"measurement": "cell viability (survival rate), HepG2", "setting": "[12]", "value": 90.5}, {"measurement": "cell viability (survival rate), HCT116", "setting": "[13]", "value": 113.4}, {"measurement": "cell viability (survival rate), LoVo", "setting": "[14]", "value": 88.9}, {"measurement": "cell viability (survival rate), TSGH", "setting": "[16]", "value": 61.2}, {"measurement": "cell viability (survival rate), MKN-45", "setting": "[17]", "value": 92.7}]}
{"smiles": "N#C[C@@H]1C[C@@H]2C[C@H]2N1C(=O)[C@@H](N)C12CC3CC(CC(O)(C3)C1)C2", "note": "[Saxagliptin (BMS-477118, Onglyza)]", "values": [{"measurement": "The results of antibiotic drug inhibiting cancer cell lines (cell viability analysis), Hep3B", "setting": "[20]", "value": 122.9}, {"measurement": "The results of antibiotic drug inhibiting cancer cell lines (cell viability analysis), SAS", "setting": "[1]", "value": 62.71}, {"measurement": "The results of antibiotic drug inhibiting cancer cell lines (cell viability analysis), AsPC-1", "setting": "[2]", "value": 75.97}, {"measurement": "The results of antibiotic drug inhibiting cancer cell lines (cell viability analysis), U2OS", "setting": "[3]", "value": 62.9}, {"measurement": "The results of antibiotic drug inhibiting cancer cell lines (cell viability analysis), 786-O", "setting": "[21]", "value": 98.33}, {"measurement": "The results of antibiotic drug inhibiting cancer cell lines (cell viability analysis), MDA-MB231", "setting": "[22]", "value": 102}, {"measurement": "The results of antibiotic drug inhibiting cancer cell lines (cell viability analysis), A549", "setting": "[5]", "value": 98.68}, {"measurement": "The results of antibiotic drug inhibiting cancer cell lines (cell viability analysis), PC-3", "setting": "[6]", "value": 112}, {"measurement": "The results of antibiotic drug inhibiting cancer cell lines (cell viability analysis), HeLa", "setting": "[7]", "value": 114.7}, {"measurement": "The results of antibiotic drug inhibiting cancer cell lines (cell viability analysis), H1650", "setting": "[8]", "value": 101.5}, {"measurement": "The results of antibiotic drug inhibiting cancer cell lines (cell viability analysis), NIH-OVCAR-3", "setting": "[23]", "value": 114.2}, {"measurement": "The results of antibiotic drug inhibiting cancer cell lines (cell viability analysis), A375", "setting": "[9]", "value": 111.4}, {"measurement": "The results of antibiotic drug inhibiting cancer cell lines (cell viability analysis), AGS", "setting": "[10]", "value": 121.3}, {"measurement": "The results of antibiotic drug inhibiting cancer cell lines (cell viability analysis), HepG2", "setting": "[12]", "value": 118}, {"measurement": "viability", "setting": "[13]", "value": 107, "unit": "%"}, {"measurement": "The results of antibiotic drug inhibiting cancer cell lines (cell viability analysis), LoVo", "setting": "[14]", "value": 82.99}, {"measurement": "The results of antibiotic drug inhibiting cancer cell lines (cell viability analysis), C-33A", "setting": "[24]", "value": 104.4}, {"measurement": "The results of antibiotic drug inhibiting cancer cell lines (cell viability analysis), TSGH-8301", "setting": "[16]", "value": 119.6}, {"measurement": "The results of antibiotic drug inhibiting cancer cell lines (cell viability analysis), MKN-45", "setting": "[17]", "value": 117.7}]}
